Reference: article PMC6120877, “Intriguing role of water in protein-ligand binding studied by neutron crystallography on trypsin complexes” (Nature Communications, 2018)

Assays:
bovine trypsin = target: T1, bovine trypsin (Bos taurus, UniProt P00760); experiment: Kinetic fluorescence enzyme inhibition assay, trypsin; type: biochemical; details: for Ki: fluorescence assay, D-Phe-Pro derivatives
T1 construct: purchased Worthington Biochemical Corporation LS003707
T1 sequence (P00760 24-246): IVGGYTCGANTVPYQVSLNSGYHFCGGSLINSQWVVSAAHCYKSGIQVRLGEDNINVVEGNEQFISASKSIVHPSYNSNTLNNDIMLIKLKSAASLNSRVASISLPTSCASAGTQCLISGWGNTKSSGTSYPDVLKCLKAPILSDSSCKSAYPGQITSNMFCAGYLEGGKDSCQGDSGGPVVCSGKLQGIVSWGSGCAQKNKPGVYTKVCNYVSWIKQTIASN
Procedure: Following the same approach as used in an earlier study, kinetic data were obtained in black 96-well plates using a Fluoroskan Ascent fluorometer (Thermo Fisher Scientific, Vantaa/Finland; λex = 355 nm, λem = 460 nm). The assay was performed at room temperature in a buffer composed of 43 mM Tris pH 7.8, 132 mM NaCl and 0.0086 % (w/v) PEG 8000. The final trypsin concentration was 65 pM. […] The D-Phe-Pro analogs were dissolved in DMSO and further diluted in buffer to yield a final DMSO concentration in the assay well below 1% (v/v). Mes-d-Arg-Gly-Arg-AMC (Mes = mesyl; AMC = […]) available from a previous study was used as the substrate. […] The uninhibited trypsin-catalyzed reaction was investigated in parallel at the three substrate concentrations 6.3, 12.5, and 25 µM. […] For this purpose, a non-linear fit to the Michaelis-Menten equation modified for reversible competitive inhibitors was used.

bovine β-trypsin [1] = target: T2, bovine β-trypsin (Bos taurus, UniProt P00760); experiment: Direct ITC titration, trypsin; type: binding; details: for number of protons transferred from the buffer onto trypsin upon complex formation (slope of interpolation function): ∆H° vs. buffer ionization enthalpy, three buffers
T2 construct: dialyzing a solution of bovine β-trypsin (Sigma Aldrich, product number T8003); purchased Sigma Aldrich T8003
T2 sequence (P00760 24-246): T1 sequence (P00760 24-246)
Procedure: To determine dissociation constants for trypsin:inhibitor complexes, two different isothermal titration calorimetry (ITC) titration protocols were used. […] Protein samples were prepared by dialyzing a solution of bovine β-trypsin (Sigma Aldrich, product number T8003) against a buffer composed of 80 mM NaCl, 10 mM CaCl2, 0.1 % (w/v) PEG 8000 and 100 mM HEPES, Tricine or Tris at a pH of 7.6 and a temperature of 4 °C while ligands were dissolved in buffer. […] Titrations were performed in three different buffer systems to enable the correction for any proton transfer occurring between buffer and protein upon complex formation. For this purpose, the obtained ∆H° values were plotted against the ionization enthalpy of the used buffer yielding a buffer-corrected enthalpy as the intercept (for more details see footnote b in Supplementary Tables 2 and 3). […] Applying the same protocol and data analysis scheme as used in an earlier study, ITC titrations were performed on an ITC200 device (GE Healthcare) at 25 °C with a reference power of 5 µcal s^−1. The ITC protocol consisted of an initial 0.3 µl volume injection and of 20–25 injections with a volume between 1.5 and 1.8 µl separated by a 220 s time interval. For data analysis, the method described by Turnbull et al. was applied.

bovine β-trypsin [2] = target: T2, bovine β-trypsin; experiment: Displacement ITC titration, trypsin (displacement ligand compound 2); type: binding; details: HEPES
Procedure: Sample preparations, measurements and data analyses were performed using the same approach as for our earlier study, which is described in the following. […] ITC data were collected using an ITC200 device (GE Healthcare) at 25 °C with a reference power of 5 µcal s^−1. An initial 0.3 µl volume injection was followed by 19 injections with a volume of 1.9 µl.

human thrombin = target: T3, human thrombin (Homo sapiens, UniProt P00734); experiment: Kinetic fluorescence enzyme inhibition assay, thrombin; type: biochemical; details: D-Phe-Pro derivatives
T3 construct: The analogous assay was applied to human thrombin, which was kindly provided by CSL Behring; purchased CSL Behring

[3] = buffer-corrected (average over three buffers), 3% (v/v) DMSO
[4] = buffer-corrected (difference between ∆G° and ∆H°), 3% (v/v) DMSO
[5] = buffer-corrected (intercept at ionization enthalpy 0), 3% (v/v) DMSO
[6] = direct titration, HEPES, 3% (v/v) DMSO
[7] = direct titration, Tricine, 3% (v/v) DMSO
[8] = direct titration, Tris, 3% (v/v) DMSO

Row | SMILES | Ki (bovine trypsin) [nM] | Kd (bovine β-trypsin [1]; [3]) [nM] | ∆G° (bovine β-trypsin [1]; [3]) [kcal/mol] | –T∆S° (bovine β-trypsin [1]; [4]) [kcal/mol] | ∆H° (bovine β-trypsin [1]; [5]) [kcal/mol] | Kd (bovine β-trypsin [1]; [6]) [nM] | –T∆S° (bovine β-trypsin [1]; [6]) [kcal/mol] | ∆G° (bovine β-trypsin [1]; [6]) [kcal/mol] | ∆H° (bovine β-trypsin [1]; [6]) [kcal/mol] | Kd (bovine β-trypsin [1]; [7]) [nM] | –T∆S° (bovine β-trypsin [1]; [7]) [kcal/mol] | ∆G° (bovine β-trypsin [1]; [7]) [kcal/mol] | ∆H° (bovine β-trypsin [1]; [7]) [kcal/mol] | Kd (bovine β-trypsin [1]; [8]) [nM] | –T∆S° (bovine β-trypsin [1]; [8]) [kcal/mol] | ∆G° (bovine β-trypsin [1]; [8]) [kcal/mol] | ∆H° (bovine β-trypsin [1]; [8]) [kcal/mol] | number of protons transferred from the buffer onto trypsin upon complex formation (slope of interpolation function) (bovine β-trypsin [1]; 3% (v/v) DMSO) | other results
1 | N=C(N)c1ccc(CNC(=O)[C@@H]2CCCN2C(=O)[C@H](N)Cc2ccccc2)cc1 [Compound 2] | 15.2 ± 0.2 | 34 | -10.2 | -1.05 | -9.13 | 38 ± 7 | -1.65 ± 0.19 | -10.1 ± 0.096 | -8.48 ± 0.17 | 34 ± 3 | -2.63 ± 0.096 | -10.2 ± 0.048 | -7.55 ± 0.096 | 31 ± 5 | -2.87 ± 0.14 | -10.2 ± 0.096 | -7.39 ± 0.096 | 0.17 | –
2 | N=C(N)c1ccccc1 [Benzamidine, benzamidine] | – | – | – | – | – | – | – | – | – | – | – | – | – | – | – | – | – | – | stronger inhibition of trypsin than N-amidinopiperidine (bovine trypsin; benzamidine vs. N-amidinopiperidine): about 10 fold; –T∆S° (bovine β-trypsin [1]; direct titration, HEPES): -3.59 ± 0.072 kcal/mol; ∆G° (bovine β-trypsin [1]; direct titration, HEPES): -6.38 ± 0.072 kcal/mol; ∆H° (bovine β-trypsin [1]; direct titration, HEPES): -2.8 ± 0.024 kcal/mol; –T∆S° (bovine β-trypsin [1]; direct titration, Tricine): -2.53 ± 0.14 kcal/mol; ∆G° (bovine β-trypsin [1]; direct titration, Tricine): -6.33 ± 0.0096 kcal/mol; ∆H° (bovine β-trypsin [1]; direct titration, Tricine): -3.8 ± 0.14 kcal/mol; –T∆S° (bovine β-trypsin [1]; direct titration, Tris): -1.58 ± 0.096 kcal/mol; ∆G° (bovine β-trypsin [1]; direct titration, Tris): -6.33 ± 0.0072 kcal/mol; ∆H° (bovine β-trypsin [1]; direct titration, Tris): -4.76 ± 0.096 kcal/mol; ∆G° (bovine β-trypsin [1]; direct titration, buffer-corrected (average over three buffers)): -6.36 kcal/mol; –T∆S° (bovine β-trypsin [1]; direct titration, buffer-corrected (difference between ∆G° and ∆H°)): -5.02 kcal/mol; ∆H° (bovine β-trypsin [1]; direct titration, buffer-corrected (intercept at ionization enthalpy 0)): -1.34 kcal/mol; number of protons transferred from the buffer onto trypsin upon complex formation (slope of interpolation function) (bovine β-trypsin [1]): -0.31; –T∆S° (bovine β-trypsin [2]): -2.44 ± 0.22 kcal/mol; ∆G° (bovine β-trypsin [2]): -6.31 ± 0.14 kcal/mol; ∆H° (bovine β-trypsin [2]): -3.85 ± 0.17 kcal/mol
3 | N=C(N)N1CCC(CNC(=O)[C@@H]2CCCN2C(=O)[C@H](N)Cc2ccccc2)CC1.O=C(O)C(F)(F)F.O=C(O)C(F)(F)F [Compound 1] | 1960 ± 264 | 3600 | -7.43 | -2.22 | -5.21 | 3700 ± 200 | -2.77 ± 0.072 | -7.41 ± 0.048 | -4.64 ± 0.072 | 3300 ± 300 | -3.15 ± 0.12 | -7.48 ± 0.048 | -4.33 ± 0.12 | 3700 ± 600 | -3.51 ± 0.17 | -7.41 ± 0.096 | -3.9 ± 0.14 | 0.12 | Ki (human thrombin): 4.51 ± 0.25 nM
